Reference: patent publication US20110173718A1, “HERBICIDE TOLERANT PLANTS” (SYNGENTA CROP PROTECTION, INC., priority 2008, published 2011)

Experiments:
Chlamydomonas HST = target: T1, Chlamydomonas HST (Chlamydomonas reinhardtii, UniProt A1JHN0); test: HST assay (TLC, MFBQ formed), recombinant Chlamydomonas HST in E. coli membranes; format: biochemical; conditions: 25 ppm, TLC, estimated amount of MFBQ formed, relative to controls; for inhibition at 25 ppm: read-out: Chlamydomonas. HST % I at 25 ppm
T1 construct: GST (N); made in house; host or cells: E. coli (BL21A1 / BL21DE3), membrane fraction
T1 sequence (A1JHN0 51-370): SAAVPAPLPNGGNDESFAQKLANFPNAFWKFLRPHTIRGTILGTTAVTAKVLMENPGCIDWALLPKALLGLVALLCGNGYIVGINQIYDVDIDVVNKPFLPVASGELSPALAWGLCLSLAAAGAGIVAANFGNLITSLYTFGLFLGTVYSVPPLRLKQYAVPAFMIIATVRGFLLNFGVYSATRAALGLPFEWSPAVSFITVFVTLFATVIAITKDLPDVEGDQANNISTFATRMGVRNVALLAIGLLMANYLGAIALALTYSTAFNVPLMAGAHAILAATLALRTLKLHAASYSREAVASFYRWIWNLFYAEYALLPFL
Procedure: Alternatively, Arabidopsis and Chlamydomonas mature HST coding sequences are cloned as GST N-terminal fusion enzymes and expressed in E. coli.
E. coli. BL21A1 cells expressing mature Arabidopsis or Chlamydonionas HST as a GST N-terminal fusion proteins are grown, harvested, broken and membrane fractions expressing HST produced.
For example, 1 ng of recombinant DNA is used to transform BL21DE3 cells to obtain a plateful of individual colonies. One of these colonies is picked and used to inoculate an overnight culture of 100 ml of Luria Broth (LB) supplemented with 50 ug/ml of kanamycin at final concentration, grown at 37° C. with shaking at 220 rpm. Next morning, 10 mls of the overnight culture is used to inoculate 11 of fresh sterile LB supplemented with 50 ug/ml of kanamycin at final concentration, grown at 37° C. with shaking at 220 rpm until the OD reached 0.6 at 600 nm, induced with the addition of 0.1 mM IPTG and left to induce at 15° C. overnight. The cells are harvested by centrifugation at 4600 rpm for 10 min at 4° C. and the pellet stored at −80° C. […] E. coli cell pellet is then resuspended in 25 ml of 50 mM Tris, pH 7.5 supplemented with Roche EDTA-free protease inhibitor tablet (one tablet in 200 mls of buffer). 10 ml of cells are lysed by sonication on ice. The resultant lysed cells are centrifuged at 3000 g for 10 min to pellet the cell nuclei/debris etc. 10 mls of supernatant is aspirated and centrifuged at 150,000 g for 60 min at 4° C. The pellet containing the membranes is resuspended in 2 ml of the above buffer. These samples are stored as 100 ul aliquots at −80° C., after being diluted with addition of glycerol to 50% v/v.
(§1) Prenyltransferase (HST) activities are measured by determining the prenylation rates of [U—^14C]homogentisate using farnesyl diphosphate (FDP) as prenyl donor. ^14C homogentisate is prepared from ^14C tyrosine using L amino acid oxidase and HPPD. For inhibitor testing, compounds are dissolved in dimethylsulfoxide (DMSO). DMSO added at up to 2% v/v has no effect on assays. Control assays contain DMSO at the same concentration as in inhibitor containing assays.
The recombinant Chlamydomonas HST expressed in E. coli membranes is assayed in standard reaction mixtures with 200 μM FDP and 100 μM ^14C-homogentisate (40 dpm/pmol) in 50 mM Tricine-NaOH pH 8.5, 20 mM MgCl2. Assays are started with the addition of enzyme and run for ˜20 min at 28° C.
Recombinant Arabidopsis and Rice HSTs are expressed in insect cells. Assays are run as for Chlamydomonas HST except that assay temperature is 27° C. Assays are stopped with 300 ul of solvent mix (1:2, Chloroform:Methanol) and 100 ul of 0.5% NaCl, agitated/mixed and spun at 13,000 rpm in a benchtop eppendorf centrifuge for 5 minutes. 80 ul of the lower phase extract is loaded onto a TLC plate (silica Gel 60, 20 cm×20 cm) FLA3000 system and run for 35 minutes in dichloromethane. The radioactivity is quantified using a Fuji Phosphoimager and band intensity integrated as quantitative measure of product amount. The bands corresponding to oxidised and reduced 2-methyl-6-farnesyl-1,4-benzoquinol (MFBQ) are identified and the total of the two (oxidised and reduced) band intensities is calculated in order to estimate the total amount of MFBQ product formation. Specific activities of 8 pmol MFBQ min^−1 mg^−1 protein (23 pmol) and 7 pmol MFBQ min^−1 mg^−1 protein (14 pmol) are, for example, estimated for the GST-fusion truncated Arabidopsis HST gene (SEQ ID # 3) expressed in membranes from insect cells 4 days and 5 days after transfection respectively. Similar results are noted from past literature on E. coli expressed Arabidopsis HST. Activity from the insect cell expressed GST-fusion truncated rice HST (SEQ ID# 4) is similar. Expression of the non-truncated HST coding sequences as GST fusions also gives HST activity. […]

[1] = system: HST in spinach chloroplast extract; test: HST assay (TLC, MFBQ formed), spinach chloroplast extract; format: biochemical; conditions: 25 ppm; TLC, estimated amount of MFBQ formed, relative to controls
Procedure: HST enzyme preparations for assay are also prepared directly from fresh plant material. For example HST enzyme preparations are from spinach. In the first step intact spinach chloroplasts are prepared from two lots of 500 g of fresh baby spinach leaves (e.g from the salad section of the local supermarket). Prepacked spinach is usually already washed, but if buying loose leaves these must be rinsed in water before proceeding. Stalks, large leaves and mid-ribs are removed. Each 500 g lot of leaves is added to 1.5 l of ‘Grinding medium’ in a 2 L plastic beaker. Grinding medium is cold (4° C.) 50 mM Tricine/NaOH buffer at pH 7.1 containing 330 mM glucose, 2 mM sodium isoascorbate, 5 mM MgCl2 and 0.1% bovine serum albumen The beaker, kept at 4° C., is placed under a Polytron 6000 blender, fitted with a 1.5″cutting probe and the mixture blended in short bursts of 5-8 sec up to 8-10K rpm until all the leaves are macerated. The homogenate is filtered into a 5 L beaker (embedded in an ice bucket) through four layers of muslin, and two layers of 50μ mesh nylon cloth. The filtrate is transferred to 250 ml buckets of a Beckman GS-6 centrifuge and spun at […] (3020 rpm) for 2 min at 4° C. The supernatant is drained away and discarded to leave a sediment of chloroplasts. Chloroplasts are resuspended in a few ml of cold resuspension medium by gentle swirling and gentle use of a quill brush soaked in resuspension medium. Resuspension medium is 50 mM Hepes/KOH pH 7.8 containing 330 mM sorbitol, 2 mM EDTA, 5 mM KH2PO4, 2 mM MgCl2 and 0.1% bovine serum albumen at 4° C. The chloroplasts are resuspended in 5-10 ml of resuspension buffer, recentrifuged down and resuspended again in order to wash them. The chloroplasts are then once again centrifuged down and then broken by resuspension in about 5 ml of 50 mM Tricine-NaOH pH 7.8 to a protein concentration of about 40 mg/ml. The solution is stored frozen at −80° C. in aliquots. This resuspension is defrosted and used directly in HST activity assays. Alternatively, chloroplasts are prepared resuspended in 50 mM Tris/HCl buffer at pH 7.8 containing 330 mM sorbitol (alternative resuspension buffer) and layered on top of a percol gradient (comprising the same buffer containing 45% percol), spun down, the intact chloroplast fraction taken and washed 2 or 3 times in the alternative resuspension buffer and then spun down again, resuspended in breaking buffer (without sorbitol), flash frozen and stored in aliquots at −80° C.
as §1
Assays using spinach chloroplast extracts (100 μl final volume) contain up to 2 mg of chloroplast protein, 50 mM Tricine-NaOH pH 8.5, 50 mM MgCl2, 200 μM farnesyl diphosphate (FDP) and 26 μM ^14C-homogentisate (167 dpm/pmol). Assays are run for about an hour at 28° C. […] Lipophilic reactions products are extracted and analyzed essentially as described in the literature.
Using the above assays percentage inhibition of the amount of MFBQ formed at a range of doses of inhibitors relative to the control amount obtained with no inhibitor present is reported (Table 1). The better inhibitors give greater percentage inhibition at lower doses.

Row | Compound | inhibition at 25 ppm (Chlamydomonas HST) | Spinach chloroplast extract % I at 25 ppm [1] | Chlamydomonas. HST % I at 25 ppm (Chlamydomonas HST)
1 | COc1nc(C)nc(NC(=O)NS(=O)(=O)c2ccccc2Cl)n1 [Chlorsulfuron, reference compound] | 0% | 0% | –
2 | Oc1c(Cl)c(Cl)nc(Cl)c1Cl [Compound 1.2] | 70% | 80% | –
3 | Oc1c(F)c(F)nc(F)c1Br [Compound 1.3] | 55% | 65% | –
4 | Oc1c(Br)c(F)nc(F)c1Br [Compound 1.4] | 65% | 75% | –
5 | CCc1cc(CC)c(-c2c(O)c3nccnc3[nH]c2=O)c(CC)c1 [Compound 2.10] | – | 0% | 50%
6 | O=c1[nH]c2nccnc2c(O)c1-c1ccccc1OC(F)(F)F [Compound 2.12] | – | 0% | 0%
7 | CCN1c2nccnc2C(O)=C(c2c(Cl)cccc2C(F)(F)F)S1(=O)=O [Compound 3.1] | – | 20% | 20%
8 | CN1c2nccnc2C(O)=C(c2ccc(Cl)cc2Cl)S1(=O)=O [Compound 3.2] | – | 15% | 0%
9 | O=S1(=O)C(c2c(Cl)cccc2C(F)(F)F)=C(O)c2nccnc2N1CC(F)F [Compound 3.3] | – | 35% | 20%
10 | O=S1(=O)C(c2c(Cl)ccc(Cl)c2Cl)=C(O)c2nccnc2N1CC(F)F [Compound 3.4] | – | 40% | 50%
11 | O=c1c(-c2c(Cl)cncc2Cl)c(O)c2nccnc2n1CC(F)F [Compound 5.1] | – | 10% | 20%
